Read-outs that look alike come from different tables or passages of the source. {C11P} = undecylphosphate group; {Acr} = acridine group
Experiments:
HSV-1 (strain CI) = format: in vivo, mice
HSV-1 virus (strain L2) = format: cell-based, Herpes Simplex Virus 1; details: Vero cells, 24 hours
HSV-1 = format: cell-based, Herpes Simplex Virus 1; details: BHK cells, oligonucleotide 3.0 μM

In the case of “Free Anti-Influenza: AGCAAAAGCAGG, equivalently modified control (5' {C11P}, 3' {Acr}, sugars by position and backbone not given here)”, the “Animals Survived/No. of Animals in group, Exp. 1” value (HSV-1 (strain CI); mouse, in vivo, iv) is reported as 0/9, the “Animals Survived/No. of Animals in group, Exp. 2” value (HSV-1 (strain CI); mouse, in vivo, iv) is reported as 1/10 and the “Animals Survived/No. of Animals in group, Exp. 3” value (HSV-1 (strain CI); mouse, in vivo, iv) is reported as 0/10. The “% Survival” value (HSV-1 (strain CI); over Exp. 1-3) was 7.0%, the “HSV-1 Infectious Titre (CPE50/ml) (n = 7)” value (shortened to “HSV-1 Infectious Titre”) (HSV-1 virus (strain L2); oligo conc. 0.2 μM) was 1.1 (±0.4) × 10^6 CPE50/ml and the “HSV-1 Infectious Titre” value (HSV-1 virus (strain L2); oligo conc. 1.0 μM) was 0.9 (±0.2) × 10^6 CPE50/ml. For the same substance, the “HSV-1 Infectious Titre” value (HSV-1 virus (strain L2); oligo conc. 5.0 μM) was 0.6 (±0.3) × 10^6 CPE50/ml and the “HSV-1 Infectious Titre” value (HSV-1) was 9 (±2) × 10^3 CPE50/ml.
